Structures can show the parent of a compound that is named as a salt. Where two headings read alike, the source gives them in different places.
Tested on: RS4; 11 with G101V mutation
Assay: In vitro anti-proliferation assay (ATPlite luminescence) in BCL-2-dependent ALL cell line RS4;11 with G101V mutation
Format: cell-based
Details: read-out: RS411-G101V IC50
In short: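 RS4;11 G101V cells at about 1×10^4 per well were exposed to a range of compound concentrations for about 72 h in medium with 10% FBS. Cellular ATP was measured by ATPlite luminescence after lysis, and IC50 was derived from the dose-response.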

[1] = cellular anti-proliferative IC50, about 72 hours, medium with 10% FBS, ATPlite

| SMILES | IC50 [1] [nM] | IC50 (Homo sapiens, RS4-11, 72 h) [nM] |
| --- | --- | --- |
| CC(C)Oc1ccccc1[C@@H]1CN(Cc2ccc(C(C)C)nc2)CCN1C1CC2(CCN(c3ccc(C(=O)NS(=O)(=O)c4cc5c(c([N+](=O)[O-])c4)N[C@H](C4CCOCC4)CO5)c(N4c5cc6cc[nH]c6nc5O[C@H]5COCC[C@@H]54)c3)CC2)C1 [Example 255, 2-[(3R,8S)-2,5-dioxa-9,15,17-triazatetracyclo[8.7.0.0^{3,8}.0^{12,16}]heptadeca-1(10),11,13,16-tetraen-9-yl]-4-{2-[(2R)-2-(2-isopropoxyphenyl)-4-[(6-isopropylpyridin-3-yl)methyl]piperazin-1-yl]-7-azaspiro[3.5]nonan-7-yl}-N-[(3R)-5-nitro-3-(oxan-4-yl)-3,4-dihydro-2H-1,4-benzoxazin-7-ylsulfonyl]benzamide] | 6.39 | – |
| COc1ccc(CN2CCN(C3CC4(CCN(c5ccc(C(=O)NS(=O)(=O)c6ccc(NCC7CCC(C)(O)CC7)c([N+](=O)[O-])c6)c(N6c7cc8cc[nH]c8nc7O[C@H]7COCC[C@@H]76)c5)CC4)C3)[C@@H](c3ccccc3OC(C)C)C2)cn1 (stereo partly drawn) [Example 102, 2-[(3R,8S)-2,5-dioxa-9,15,17-triazatetracyclo[8.7.0.0^{3,8}.0^{12,16}]heptadeca-1(10),11,13,16-tetraen-9-yl]-4-{2-[(2S)-2-(2-isopropoxyphenyl)-4-[(6-methoxypyridin-3-yl)methyl]piperazin-1-yl]-7-azaspiro[3.5]nonan-7-yl}-N-[3-nitro-4-({[(1r,4r)-4-hydroxy-4-methylcyclohexyl]methyl}amino)benzenesulfonyl]benzamide] | 18 | – |
| CC(C)Oc1ccccc1[C@H]1CN(Cc2ccc(N3CCOCC3)nc2)CCN1C1CC2(CCN(c3ccc(C(=O)NS(=O)(=O)c4ccc(NCC5CCC(C)(O)CC5)c([N+](=O)[O-])c4)c(N4c5cc6cc[nH]c6nc5O[C@H]5COCC[C@@H]54)c3)CC2)C1 (stereo partly drawn) [Example 100, 2-[(3R,8S)-2,5-dioxa-9,15,17-triazatetracyclo[8.7.0.0^{3,8}.0^{12,16}]heptadeca-1(10),11,13,16-tetraen-9-yl]-4-{2-[(2S)-2-(2-isopropoxyphenyl)-4-{[6-(morpholin-4-yl)pyridin-3-yl]methyl}piperazin-1-yl]-7-azaspiro[3.5]nonan-7-yl}-N-[3-nitro-4-({[(1r,4r)-4-hydroxy-4-methylcyclohexyl]methyl}amino)benzenesulfonyl]benzamide] | 16.1 | – |
| COc1ccc(CN2CCN(C3CC4(CCN(c5ccc(C(=O)NS(=O)(=O)c6cc7c(c([N+](=O)[O-])c6)N[C@H](C6CCOCC6)CO7)c(N6c7cc8cc[nH]c8nc7O[C@H]7COCC[C@@H]76)c5)CC4)C3)[C@H](c3ccccc3OC(C)C)C2)cn1 [Example 258, 4-(2-((R)-2-(2-isopropoxyphenyl)-4-((6-methoxypyridin-3-yl)methyl)piperazin-1-yl)-7-azaspiro[3.5]nonan-7-yl)-N-(((R)-5-nitro-3-(tetrahydro-2H-pyran-4-yl)-3,4-dihydro-2H-benzo[b][1,4]oxazin-7-yl)sulfonyl)-2-((5aS,9aR)-6,7,9,9a-tetrahydro-1H-pyrano[3,4-b]pyrrolo[3′,2′:5,6]pyrido[3,2-e][1,4]oxazin-5(5aH)-yl)benzamide] | – | 11.7 |
| CC(C)Oc1ccccc1[C@H]1CN(Cc2cnc3c(c2)OCCO3)CCN1C1CC2(CCN(c3ccc(C(=O)NS(=O)(=O)c4ccc(NCC5CCC(C)(O)CC5)c([N+](=O)[O-])c4)c(N4c5cc6cc[nH]c6nc5O[C@H]5COCC[C@@H]54)c3)CC2)C1 (stereo partly drawn) [Example 117, 2-[(3R,8S)-2,5-dioxa-9,15,17-triazatetracyclo[8.7.0.0^{3,8}.0^{12,16}]heptadeca-1(10),11,13,16-tetraen-9-yl]-4-{2-[(2S)-4-{2H,3H-[1,4]dioxino[2,3-b]pyridin-7-ylmethyl}-2-(2-isopropoxyphenyl)piperazin-1-yl]-7-azaspiro[3.5]nonan-7-yl}-N-[3-nitro-4-({[(1r,4r)-4-hydroxy-4-methylcyclohexyl]methyl}amino)benzenesulfonyl]benzamide] | 13.2 | – |
| COc1cc(CN2CCN(C3CC4(CCN(c5ccc(C(=O)NS(=O)(=O)c6ccc(NCC7CCC(C)(O)CC7)c([N+](=O)[O-])c6)c(N6c7cc8cc[nH]c8nc7O[C@H]7COCC[C@@H]76)c5)CC4)C3)[C@@H](c3ccccc3OC(C)C)C2)cnc1C (stereo partly drawn) [Example 135, 2-[(3R,8S)-2,5-dioxa-9,15,17-triazatetracyclo[8.7.0.0^{3,8}.0^{12,16}]heptadeca-1(10),11,13,16-tetraen-9-yl]-4-{2-[(2S)-2-(2-isopropoxyphenyl)-4-[(5-methoxy-6-methylpyridin-3-yl)methyl]piperazin-1-yl]-7-azaspiro[3.5]nonan-7-yl}-N-[3-nitro-4-({[(1r,4r)-4-hydroxy-4-methylcyclohexyl]methyl}amino)benzenesulfonyl]benzamide] | 11.2 | – |
| CC(C)Oc1ccccc1[C@@H]1CN(Cc2ccc(F)c(F)c2)CCN1C1CC2(CCN(c3ccc(C(=O)NS(=O)(=O)c4cc5c(c([N+](=O)[O-])c4)N[C@H](C4CCOCC4)CO5)c(N4c5cc6c(F)c[nH]c6nc5O[C@H]5COCC[C@@H]54)c3)CC2)C1 [Example 236, 4-{2-[(2R)-4-[(3,4-difluorophenyl)methyl]-2-(2-isopropoxyphenyl)piperazin-1-yl]-7-azaspiro[3.5]nonan-7-yl}-2-[(3R,8S)-13-fluoro-2,5-dioxa-9,15,17-triazatetracyclo[8.7.0.0^{3,8}.0^{12,16}]heptadeca-1(10),11,13,16-tetraen-9-yl]-N-[(3R)-5-nitro-3-(oxan-4-yl)-3,4-dihydro-2H-1,4-benzoxazin-7-ylsulfonyl]benzamide] | 5.52 | – |
| CC(C)Oc1ccccc1[C@@H]1CN(C2CCC(C)(O)CC2)CCN1C1CC2(CCN(c3ccc(C(=O)NS(=O)(=O)c4cc5c(c([N+](=O)[O-])c4)N[C@H](C4CCOCC4)CO5)c(N4c5cc6cc[nH]c6nc5O[C@H]5COCC[C@@H]54)c3)CC2)C1 (stereo partly drawn) [Example 207, 4-(2-((R)-4-((1r,4R)-4-hydroxy-4-methylcyclohexyl)-2-(2-isopropoxyphenyl)piperazin-1-yl)-7-azaspiro[3.5]nonan-7-yl)-N-(((R)-5-nitro-3-(tetrahydro-2H-pyran-4-yl)-3,4-dihydro-2H-benzo[b][1,4]oxazin-7-yl)sulfonyl)-2-((5aS,9aR)-6,7,9,9a-tetrahydro-1H-pyrano[3,4-b]pyrrolo[3′,2′:5,6]pyrido[3,2-e][1,4]oxazin-5(5aH)-yl)benzamide] | 26.9 | – |
| CC(C)Oc1ccccc1[C@@H]1CN(Cc2ccc(C(F)(F)F)nc2)CCN1C1CC2(CCN(c3ccc(C(=O)NS(=O)(=O)c4cc5c(c([N+](=O)[O-])c4)N[C@H](C4CCOCC4)CO5)c(N4c5cc6cc[nH]c6nc5O[C@H]5COCC[C@@H]54)c3)CC2)C1 [Example 261, 2-[(3R,8S)-2,5-dioxa-9,15,17-triazatetracyclo[8.7.0.0^{3,8}.0^{12,16}]heptadeca-1(10),11,13,16-tetraen-9-yl]-4-{2-[(2R)-2-(2-isopropoxyphenyl)-4-{[6-(trifluoromethyl)pyridin-3-yl]methyl}piperazin-1-yl]-7-azaspiro[3.5]nonan-7-yl}-N-[(3R)-5-nitro-3-(oxan-4-yl)-3,4-dihydro-2H-1,4-benzoxazin-7-ylsulfonyl]benzamide] | 3.87 | – |
| COc1nc(CN2CCN(C3CC4(CCN(c5ccc(C(=O)NS(=O)(=O)c6ccc(NCC7CCC(C)(O)CC7)c([N+](=O)[O-])c6)c(N6c7cc8cc[nH]c8nc7O[C@H]7COCC[C@@H]76)c5)CC4)C3)[C@@H](c3ccccc3OC(C)C)C2)cc2c1OCCC2(C)C (stereo partly drawn) [Example 110, 2-[(3R,8S)-2,5-dioxa-9,15,17-triazatetracyclo[8.7.0.0^{3,8}.0^{12,16}]heptadeca-1(10),11,13,16-tetraen-9-yl]-4-{2-[(2S)-2-(2-isopropoxyphenyl)-4-({8-methoxy-4,4-dimethyl-2H,3H-pyrano[2,3-c]pyridin-6-yl}methyl)piperazin-1-yl]-7-azaspiro[3.5]nonan-7-yl}-N-[3-nitro-4-({[(1r,4r)-4-hydroxy-4-methylcyclohexyl]methyl}amino)benzenesulfonyl]benzamide hydrochloride] | 23.8 | – |
| CC(C)Oc1ccccc1[C@@H]1CN([C@H]2COc3c(F)cc(F)cc3C2)CCN1C1CC2(CCN(c3ccc(C(=O)NS(=O)(=O)c4cc5c(c([N+](=O)[O-])c4)N[C@H](C4CCOCC4)CO5)c(N4c5cc6cc[nH]c6nc5O[C@H]5COCC[C@@H]54)c3)CC2)C1 [Example 221, 4-(2-((R)-4-((R)-6,8-difluorochroman-3-yl)-2-(2-isopropoxyphenyl)piperazin-1-yl)-7-azaspiro[3.5]nonan-7-yl)-N-(((R)-5-nitro-3-(tetrahydro-2H-pyran-4-yl)-3,4-dihydro-2H-benzo[b][1,4]oxazin-7-yl)sulfonyl)-2-((5aS,9aR)-6,7,9,9a-tetrahydro-1H-pyrano[3,4-b]pyrrolo[3′,2′:5,6]pyrido[3,2-e][1,4]oxazin-5(5aH)-yl)benzamide] | – | 130 |
| COc1cc(CN2CCN(C3CC4(CCN(c5ccc(C(=O)NS(=O)(=O)c6ccc(NCC7CCC(C)(O)CC7)c([N+](=O)[O-])c6)c(N6c7cc8cc[nH]c8nc7O[C@H]7COCC[C@@H]76)c5)CC4)C3)[C@@H](c3ccccc3OC(C)C)C2)cnc1OC (stereo partly drawn) [Example 104, 4-{2-[(2S)-4-[(5,6-dimethoxypyridin-3-yl)methyl]-2-(2-isopropoxyphenyl)piperazin-1-yl]-7-azaspiro[3.5]nonan-7-yl}-2-[(3R,8S)-2,5-dioxa-9,15,17-triazatetracyclo[8.7.0.0^{3,8}.0^{12,16}]heptadeca-1(10),11,13,16-tetraen-9-yl]-N-[3-nitro-4-({[(1r,4r)-4-hydroxy-4-methylcyclohexyl]methyl}amino)benzenesulfonyl]benzamide] | 6.9 | – |
